This note sets out measurements from paper PMC8153121, “N-Alkylation of Anthracycline Antibiotics by Natural Sesquiterpene Lactones as a Way to Obtain Antitumor Agents with Reduced Side Effects” (Biomedicines, 2021).

Assay [1] has as its system RD (embryonic rhabdomyosarcoma). In words: MTT cell viability test, RD. To be noted: MTT, 72 h; read-out: IC50, RD. Type of assay: cell-based, Human. Here is the method:
(§1) Human cell cultures of tumor origin (A549 (lung carcinoma), HCT116 (colon adenocarcinoma), MCF7 (breast cancer), RD (embryonic rhabdomyosarcoma)), and the line of non-transformed cells HEK293 (embryonic kidney) provided by the Laboratory of Tumor Cell Genetics at the N.N. Blokhin Russian Cancer Research Institute, as well as by the Institute of Cytology of the Russian Academy of Sciences, were grown in DMEM (Gibco, Scotland, UK) and MEM (Gibco, Scotland, UK) containing fetal calf serum (10% by volume) (ThermoFisher Scientific, Paisley, UK), L-glutamine (2 mM) (Gibco, Scotland, UK), and penicillin-streptomycin (1% by volume) (PanEco, Moscow, Russia).
(§2) Cellular viability was determined by the MTT test. […] After 24 h of incubation, various concentrations of the test compounds dissolved in DMSO (≤1%) were added to the cell cultures, the solvent was added to the control wells in an equal volume, and then the cells were cultured under the same conditions for 72 h. After the incubation time, MTT (3-(4,5-dimethylthiazol-2-yl)-2,5-diphenyltetrazolium bromide, 5 mg/mL) was added to each well, and the plates were further incubated for 2 h (until a characteristic color appeared). Then, the formazan granules were dissolved in DMSO.
(§3) Using a plate analyzer (Cytation3, BioTech Instruments Inc., USA), the optical density was determined at λ = 530 nm.
In general terms: Tetrazolium assays rely on reduction of a dye to a coloured formazan, in cell work by metabolically active cells.

Another assay deals with A549 (lung carcinoma). In words: MTT cell viability test, A549. Type of assay: cell-based, Human. To be noted: MTT, 72 h; read-out: IC50, A549. Here is the method:
as §1, §2, §3

In the next assay the test system is rat heart mitochondria. In words: Mitochondrial swelling. The class given is biochemical. The note with it: rat heart mitochondria 0.5 mg/mL, compounds at 100 μM, Ca2+ 25 μM. Here is the method: (§4) Rat heart mitochondria were isolated by differential centrifugation using ice-cold buffer containing KCl (120 mM) and HEPES (20 mM), pH = 7.4, and a trypsin inhibitor. The mitochondrial yield ranged from 5 to 10 mg/mL of protein in the heart sediment. Mitochondria were stored in plastic containers at 4 °C.
Mitochondrial swelling was recorded by the light transmission of the rat heart mitochondrial suspension at λ = 540 nm using a Victor 3 plate analyzer (Perkin Elmer, Germany). The swelling rate was estimated as △A540/min and was calculated as the tangent of the angle of the steepest dependence curve part △A540 versus time.

The test system of assay [2] is HEK293 (embryonic kidney). Description: MTT cell viability test, non-transformed HEK293. Type of assay: cell-based, Human. To be noted: MTT, 72 h, non-transformed cells; read-out: IC50, HEK293. Here is the method: as §1, §2, §3
Assay [3] addresses T1, cytochrome-c-oxidase complex of the mitochondrial respiratory chain (IV) (Rattus norvegicus, UniProt P00406+P05503+P05505).
T1 construct: Rat heart mitochondria were isolated by differential centrifugation; from tissue; host or cells: rat heart mitochondria
In words: Respiratory chain complex IV, OCR of isolated rat heart mitochondria (Seahorse). The class given is biochemical. To be noted: isolated rat heart mitochondria 10 μg/well, compounds at 30 μM. Here is the method: as §4
(§5) The effect of the compounds on the functioning of the electron transport chain complexes was carried out using an Agilent Seahorse XF96e Analyzer (Seahorse Bioscience, Billerica, MA, USA) according to their ability to change the rate of oxygen uptake by isolated rat heart mitochondria (10 μg/well). The following modulators were used: activators of complex I of the electron transport chain, NADH dehydrogenase,—glutamate/malate; rotenone (2 μM) (Sigma Aldrich, Saint Louis, USA)—a tissue respiration blocker that stops the transfer of electrons from the reduced form of NADH to cytochrome b, was used as complex I inhibitor; potassium succinate ([…]) (Dia-M, Moscow, Russia), which is a substrate of complex II of the electron transport chain, made it possible to assess mitochondrial respiration mediated by succinate dehydrogenase; complex III (ubiquinol-cytochrome c-oxidoreductase) inhibitor—a blocker of cellular respiration antimycin A (Sigma Aldrich, Saint Louis, USA), as well as ascorbate/TMPD (0.5 μM) (Sigma Aldrich, Saint Louis, USA), allowed us to evaluate the cytochrome-c-oxidase mediated respiration of organelles.

Assay [4] deals with HeLa cervical tumor cell line. In words: Glycolysis stress test (Seahorse, extracellular acidification rate). To be noted: HeLa cells, test substances 30 μM. Type of assay: cell-based. Here is the method: The ability of the studied compounds to modulate anaerobic glycolysis was investigated using the Agilent Seahorse XF96e Analyzer (Seahorse Bioscience, Billerica, MA, USA) according to the level of hydrogen proton production in the samples on the HeLa cervical tumor cell line by the glycolysis stress test.
HeLa cells in the exponential growth phase were plated into a 96-well cell culture microplate Seahorse (the density of the cell culture was 3 × 10^4/well). After 24 h, the rate of medium extracellular acidification by cells treated with the test compounds was recorded in real time during the sequential injection of modulators: glucose (10 mM) (Dia-M, Moscow, Russia), oligomycin (1 μM) (Sigma Aldrich, Saint Louis, USA), 2-fluoro-2-deoxy-D-glucose (25 mM) (Sigma Aldrich, Saint Louis, USA). This allowed us to estimate the glycolysis intensity in cells by three main parameters of glycolytic function: glycolysis by adding saturating amounts of glucose to the system, glycolytic capacity by the introduction of oligomycin, and glycolytic reserve by using the inhibitor of this glycolysis 2-fluoro-2-deoxy-D-glucose.

Assay [5] has as its system HCT116 (colon adenocarcinoma). In words: MTT cell viability test, HCT116. The class given is cell-based, Human. To be noted: MTT, 72 h; read-out: IC50, HCT116. Here is the method:
as §1, §2, §3

Another assay has as its system MCF7 (breast cancer). In words: MTT cell viability test, MCF7. Type of assay: cell-based, Human. To be noted: MTT, 72 h; read-out: IC50, MCF7. Here is the method: as §1, §2, §3
Assay [6] deals with T2, complex II of the electron transport chain (Rattus norvegicus, UniProt P21913+Q641Z9+Q6PCT8+Q920L2).
T2 construct: Rat heart mitochondria were isolated by differential centrifugation; from tissue; host or cells: rat heart mitochondria
T2 sequence (Q920L2 35-656): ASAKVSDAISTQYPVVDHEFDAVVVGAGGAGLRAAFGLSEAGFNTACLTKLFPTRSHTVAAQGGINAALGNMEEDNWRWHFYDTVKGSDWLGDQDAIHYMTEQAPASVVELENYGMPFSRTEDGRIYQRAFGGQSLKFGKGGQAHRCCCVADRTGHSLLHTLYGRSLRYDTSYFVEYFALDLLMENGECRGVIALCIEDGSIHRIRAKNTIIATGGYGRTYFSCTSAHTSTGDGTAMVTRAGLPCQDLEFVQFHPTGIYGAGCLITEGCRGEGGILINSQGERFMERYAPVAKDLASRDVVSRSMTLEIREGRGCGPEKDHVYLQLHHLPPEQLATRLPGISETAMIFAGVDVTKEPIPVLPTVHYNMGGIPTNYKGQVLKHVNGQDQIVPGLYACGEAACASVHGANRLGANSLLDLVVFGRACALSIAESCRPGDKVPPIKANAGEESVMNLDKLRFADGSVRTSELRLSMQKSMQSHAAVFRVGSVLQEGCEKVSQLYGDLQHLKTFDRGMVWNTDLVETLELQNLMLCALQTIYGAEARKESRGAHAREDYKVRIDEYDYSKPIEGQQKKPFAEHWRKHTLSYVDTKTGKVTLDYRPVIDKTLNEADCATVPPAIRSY
T2 sequence (P21913 31-282): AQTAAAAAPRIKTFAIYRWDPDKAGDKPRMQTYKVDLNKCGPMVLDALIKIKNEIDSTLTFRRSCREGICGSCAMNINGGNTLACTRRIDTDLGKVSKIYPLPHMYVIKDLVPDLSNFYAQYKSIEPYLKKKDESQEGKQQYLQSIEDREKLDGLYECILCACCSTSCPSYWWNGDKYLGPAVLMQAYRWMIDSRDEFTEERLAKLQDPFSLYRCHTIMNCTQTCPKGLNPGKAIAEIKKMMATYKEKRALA
T2 sequence (Q641Z9 30-169 limits assumed): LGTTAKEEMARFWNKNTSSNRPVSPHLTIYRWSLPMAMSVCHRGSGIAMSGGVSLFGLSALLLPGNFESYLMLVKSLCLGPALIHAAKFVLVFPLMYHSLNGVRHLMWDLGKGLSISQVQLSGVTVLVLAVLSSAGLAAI
T2 sequence (Q6PCT8 57-159): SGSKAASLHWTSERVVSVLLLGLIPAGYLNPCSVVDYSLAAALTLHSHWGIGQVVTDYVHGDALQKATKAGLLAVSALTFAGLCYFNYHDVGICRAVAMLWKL
Description: Respiratory chain complex II, OCR of isolated rat heart mitochondria (Seahorse). The class given is biochemical. The note with it: isolated rat heart mitochondria 10 μg/well, compounds at 30 μM. Here is the method: as §4, §5

Broadly, the IC50 is the concentration that inhibits the measured activity by half.

T1 sequence (P00406 whole entry, other chains not shown): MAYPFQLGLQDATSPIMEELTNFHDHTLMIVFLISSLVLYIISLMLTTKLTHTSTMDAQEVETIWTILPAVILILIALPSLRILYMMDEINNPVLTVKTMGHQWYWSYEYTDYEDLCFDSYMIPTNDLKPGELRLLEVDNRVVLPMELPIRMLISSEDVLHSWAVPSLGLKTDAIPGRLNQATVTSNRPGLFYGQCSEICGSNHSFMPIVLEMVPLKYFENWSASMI
T1 sequence (P05505 whole entry, other chains not shown): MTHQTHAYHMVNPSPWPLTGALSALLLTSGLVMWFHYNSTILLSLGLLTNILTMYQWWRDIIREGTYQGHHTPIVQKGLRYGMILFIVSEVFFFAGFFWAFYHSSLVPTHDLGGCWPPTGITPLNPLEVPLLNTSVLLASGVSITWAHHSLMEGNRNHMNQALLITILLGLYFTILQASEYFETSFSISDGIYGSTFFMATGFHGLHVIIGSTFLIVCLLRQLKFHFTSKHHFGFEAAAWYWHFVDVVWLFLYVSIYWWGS

Regarding `COc1cccc2c1C(=O)c1c(O)c3c(c(O)c1C2=O)C[C@@](O)(C(C)=O)C[C@@H]3O[C@H]1C[C@H](NC[C@H]2C(=O)O[C@@H]3C[C@@]4(C)CCCC(C)=C4C[C@@H]32)[C@H](O)[C@H](C)O1` [Compound 3b], the IC50 in [1] came out at 0.59 ± 0.05 µM; in the assay on A549 (lung carcinoma), 1.42 ± 0.05 µM; in assay [2] it was 6.37 ± 0.24 µM; in [5] it was 1.01 ± 0.01 µM; in the assay with MCF7 (breast cancer), 1.24 ± 0.23 µM. Besides, in the assay with rat heart mitochondria, the “Mitochondrial Swelling, % of Ca2+-Induced Swelling” value was 26.45 ± 7.14%. In addition, the “Work of Respiratory Chain Complexes, % Decrease in OCR of Control, IV” value in assay [3] was “— (“—” indicates activity absence for compounds (≤10%) in a particular test)”. Also, in assay [4], the “Effect on glycolytic function (extracellular acidification rate)” value was “most pronounced ability to reduce the acidification rate of the medium by cells”.

Regarding `COc1cccc2c1C(=O)c1c(O)c3c(c(O)c1C2=O)CC(O)(C(=O)CO)CC3OC1CC(NCC2C(=O)OC3CC4(C)CCCC(C)C45OC5C32)C(O)C(C)O1` (centres unmarked) [Compound 5a], the IC50 is 2.47 ± 0.07 µM in assay [1]; 4.52 ± 0.57 µM in the assay with A549 (lung carcinoma); 4.5 ± 0.32 µM in assay [2]; 2.52 ± 0.02 µM in [5]; 3.03 ± 0.07 µM in the assay on MCF7 (breast cancer). Besides, the “Mitochondrial Swelling, % of Ca2+-Induced Swelling” value in the assay on rat heart mitochondria was “— (“—” indicates activity absence for compounds (≤10%) in a particular test)”. The “Work of Respiratory Chain Complexes, % Decrease in OCR of Control, IV” value in [3] is 23.99 ± 4.41%. In assay [6], the “Work of Respiratory Chain Complexes, % Decrease in OCR of Control, II” value was “— (“—” indicates activity absence for compounds (≤10%) in a particular test)”. Besides, in assay [4], the “Effect on glycolytic function (extracellular acidification rate)” value was “most pronounced ability to reduce the acidification rate of the medium by cells”.
